“And” between values parts separate entries of the source, which are not always exact repeats. Equal entries are not always repeated. Toxic doses and inconclusive results are not listed.

The test system of the test is CD2F1 mice, L1210 leukemia ip, survival T/C. Briefly: NCI In Vivo Anticancer Drug Screen. Data for tumor model L1210 Leukemia (intraperitoneal) in CD2F1 (CDF1) mice. Particulars: higher = longer survival. Summed up: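 Ratio T/C, where T is the treated-group value and C the vehicle-dosed control value, from mice implanted with a transplantable tumor.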
Where [1] appears, read: endpoint: mean survival time, dose: 100.0 mg/kg/injection, schedule: Q01DX001 (ip), vehicle: Klucel (hydroxypropylcellulose) (HPC).
Setting [2] is: endpoint: mean survival time, dose: 200.0 mg/kg/injection, schedule: Q01DX001 (ip), vehicle: Klucel (hydroxypropylcellulose) (HPC).
The mark [3] stands for this setting: endpoint: mean survival time, dose: 400.0 mg/kg/injection, schedule: Q01DX001 (ip), vehicle: Klucel (hydroxypropylcellulose) (HPC).
[4] abbreviates: endpoint: mean survival time, dose: 100.0 mg/kg/injection, schedule: Q04DX003 (ip), vehicle: saline with Tween-80.
The mark [5] stands for this setting: endpoint: mean survival time, dose: 200.0 mg/kg/injection, schedule: Q04DX003 (ip), vehicle: saline with Tween-80.
Setting [6] is: endpoint: mean survival time, dose: 400.0 mg/kg/injection, schedule: Q04DX003 (ip), vehicle: saline with Tween-80.
Where [7] appears, read: endpoint: mean survival time, dose: 100.0 mg/kg/injection, schedule: Q01DX001 (ip), vehicle: saline with Tween-80.
Where [8] appears, read: endpoint: mean survival time, dose: 200.0 mg/kg/injection, schedule: Q01DX001 (ip), vehicle: saline with Tween-80.
Where [9] appears, read: endpoint: mean survival time, dose: 400.0 mg/kg/injection, schedule: Q01DX001 (ip), vehicle: saline with Tween-80.
[10] abbreviates: endpoint: mean survival time, dose: 400.0 mg/kg/injection, schedule: Q01DX009 (ip), vehicle: saline with Tween-80.
The mark [11] stands for this setting: endpoint: mean survival time, dose: 100.0 mg/kg/injection, schedule: Q01DX009 (ip), vehicle: saline with Tween-80.
Where [12] appears, read: endpoint: mean survival time, dose: 200.0 mg/kg/injection, schedule: Q01DX009 (ip), vehicle: saline with Tween-80.

`CC(=O)OC1C(N=[N+]=[N-])C(OC(C)=O)C(OC(C)=O)C(OC(C)=O)C1OC(C)=O` (centres undefined): the T/C by setting is: under setting [1], 93 % of control; under setting [2], 95 % of control; under setting [3], 103 % of control.

`O[C@H](CN1CC1)[C@@H](O)CN1CC1`: the T/C reads like this: (endpoint: mean survival time, dose: 0.25 mg/kg/injection, schedule: Q01DX007 (ip), vehicle: saline) 150 % of control; (endpoint: mean survival time, dose: 0.25 mg/kg/injection, schedule: Q01DX009 (ip), vehicle: saline) 170 % of control and 177 % of control and 178 % of control; (endpoint: mean survival time, dose: 0.5 mg/kg/injection, schedule: Q01DX007 (ip), vehicle: saline) 192 % of control; (endpoint: mean survival time, dose: 0.5 mg/kg/injection, schedule: Q01DX009 (ip), vehicle: saline) 165 % of control and 197 % of control and 205 % of control; (endpoint: mean survival time, dose: 0.5 mg/kg/injection, schedule: Q03DX003 (ip), vehicle: saline) 166 % of control; (endpoint: mean survival time, dose: 0.5 mg/kg/injection, schedule: Q04DX003 (ip), vehicle: saline) 164 % of control. The T/C (endpoint: mean survival time, dose: 1.0 mg/kg/injection, schedule: Q01DX007 (ip), vehicle: saline) was 94 % of control; the T/C (endpoint: mean survival time, dose: 1.0 mg/kg/injection, schedule: Q01DX009 (ip), vehicle: saline) was 116 % of control and 95 % of control; the T/C (endpoint: mean survival time, dose: 1.0 mg/kg/injection, schedule: Q03DX003 (ip), vehicle: saline) is 202 % of control; the T/C (endpoint: mean survival time, dose: 1.0 mg/kg/injection, schedule: Q04DX003 (ip), vehicle: saline) is 184 % of control.

For `CC1=C(C)C2(C)C(C)C2(C)C1C` (centres undefined), the T/C reads like this: under setting [4], 90 % of control; under setting [5], 110 % of control; under setting [6], 98 % of control.

Regarding `Nc1cc(=S)c2ncn(C3OC(CO)C(O)C3O)c2[nH]1` (centres undefined), the T/C is, setting by setting: (endpoint: mean survival time, dose: 6.25 mg/kg/injection, schedule: Q01DX005 (ip), vehicle: water) 89 % of control; (endpoint: mean survival time, dose: 12.5 mg/kg/injection, schedule: Q01DX005 (ip), vehicle: water) 101 % of control; (endpoint: mean survival time, dose: 25.0 mg/kg/injection, schedule: Q01DX005 (ip), vehicle: water) 89 % of control; (endpoint: mean survival time, dose: 50.0 mg/kg/injection, schedule: Q01DX005 (ip), vehicle: water) 96 % of control; under setting [7], 100 % of control; (endpoint: mean survival time, dose: 100.0 mg/kg/injection, schedule: Q01DX005 (ip), vehicle: water) 93 % of control. The T/C was 91 % of control under setting [8] and 100 % of control under setting [9].

Regarding `O=c1[nH]c(=O)n(C2SC(CO)C(O)C2O)cc1F` (centres undefined), the T/C is 113 % of control (endpoint: mean survival time, dose: 178.0 mg/kg/injection, schedule: Q01DX009 (ip), vehicle: saline with Tween-80); 113 % of control (endpoint: mean survival time, dose: 267.0 mg/kg/injection, schedule: Q01DX009 (ip), vehicle: saline with Tween-80); 119 % of control under setting [10].

As for `CN1COc2c(n(C)c(=O)[nH]c2=O)C1`, the T/C was 98 % of control (endpoint: median survival time, dose: 50.0 mg/kg/injection, schedule: Q01DX005 (ip), vehicle: saline); 101 % of control (endpoint: median survival time, dose: 50.0 mg/kg/injection, schedule: Q01DX005 (ip), vehicle: suspension in saline); 98 % of control (endpoint: median survival time, dose: 100.0 mg/kg/injection, schedule: Q01DX005 (ip), vehicle: saline); 103 % of control (endpoint: median survival time, dose: 100.0 mg/kg/injection, schedule: Q01DX005 (ip), vehicle: suspension in saline); 101 % of control (endpoint: median survival time, dose: 200.0 mg/kg/injection, schedule: Q01DX005 (ip), vehicle: saline); 102 % of control (endpoint: median survival time, dose: 200.0 mg/kg/injection, schedule: Q01DX005 (ip), vehicle: suspension in saline). Further, the T/C by setting is: (endpoint: median survival time, dose: 400.0 mg/kg/injection, schedule: Q01DX005 (ip), vehicle: saline) 109 % of control; (endpoint: median survival time, dose: 400.0 mg/kg/injection, schedule: Q01DX005 (ip), vehicle: suspension in saline) 119 % of control; (endpoint: median survival time, dose: 800.0 mg/kg/injection, schedule: Q01DX005 (ip), vehicle: saline) 108 % of control; (endpoint: median survival time, dose: 800.0 mg/kg/injection, schedule: Q01DX005 (ip), vehicle: suspension in saline) 116 % of control.

As to `CCCCCCCCCCCCCCCC[N+](C)(C)C`, the T/C runs as follows: (endpoint: mean survival time, dose: 1.25 mg/kg/injection, schedule: Q01DX009 (ip), vehicle: saline with Tween-80) 96 % of control; (endpoint: mean survival time, dose: 2.5 mg/kg/injection, schedule: Q01DX009 (ip), vehicle: saline with Tween-80) 98 % of control; (endpoint: mean survival time, dose: 5.0 mg/kg/injection, schedule: Q01DX009 (ip), vehicle: saline with Tween-80) 94 % of control and 97 % of control; (endpoint: mean survival time, dose: 5.0 mg/kg/injection, schedule: Q04DX003 (ip), vehicle: saline) 96 % of control; (endpoint: mean survival time, dose: 10.0 mg/kg/injection, schedule: Q04DX003 (ip), vehicle: saline) 98 % of control; (endpoint: mean survival time, dose: 20.0 mg/kg/injection, schedule: Q04DX003 (ip), vehicle: saline) 95 % of control.

`CC1C=CC(C)c2c(-c3ccccc3)oc(-c3ccccc3)c21` (centres undefined): the T/C by setting is: under setting [11], 88 % of control; under setting [4], 100 % of control; under setting [12], 86 % of control; under setting [5], 97 % of control; under setting [10], 91 % of control; under setting [6], 96 % of control.

With `CCCCCCCCCCOc1ccc(/C=N\N=C\c2ccc(OCCCCCCCCCC)cc2)cc1`, the T/C is, setting by setting: under setting [4], 94 % of control; under setting [5], 94 % of control; under setting [6], 92 % of control.

In the case of `COC(=O)c1cccc(COc2ccc([N+](=O)[O-])cc2Cl)c1`, the T/C is 98 % of control under setting [11]; 101 % of control under setting [4]; 96 % of control under setting [12]; 100 % of control under setting [5]; 95 % of control under setting [10]; 100 % of control under setting [6].

Turning to `C[n+]1ccc2ccccc2c1`, the T/C runs as follows: (endpoint: mean survival time, dose: 75.0 mg/kg/injection, schedule: Q01DX001 (ip), vehicle: saline) 103 % of control; (endpoint: mean survival time, dose: 150.0 mg/kg/injection, schedule: Q01DX001 (ip), vehicle: saline) 103 % of control.

Take `O=C1CCC([N+](=O)[O-])C(c2cccc3ccccc23)N1` (centres undefined): the T/C was 94 % of control under setting [7], 94 % of control under setting [8] and 97 % of control under setting [9].

Take `[Se]=[P+](OC1CCCCC1)OC1CCCCC1`: the T/C is 90 % of control (endpoint: mean survival time, dose: 100.0 mg/kg/injection, schedule: Q01DX001 (ip), vehicle: saline); 92 % of control (endpoint: mean survival time, dose: 200.0 mg/kg/injection, schedule: Q01DX001 (ip), vehicle: saline); 92 % of control (endpoint: mean survival time, dose: 400.0 mg/kg/injection, schedule: Q01DX001 (ip), vehicle: saline).

`CCC(C)(OC(C)=O)C(=O)OC1C(=O)OC2CC3C(C)=CC(O)C(O)C3(C)C3C4(O)OCC23C1C(C)C4O` (centres undefined): the T/C runs as follows: (endpoint: mean survival time, dose: 0.25 mg/kg/injection, schedule: Q01DX009 (ip), vehicle: saline + alcohol) 98 % of control; (endpoint: mean survival time, dose: 0.5 mg/kg/injection, schedule: Q01DX009 (ip), vehicle: saline + alcohol) 102 % of control; (endpoint: mean survival time, dose: 1.0 mg/kg/injection, schedule: Q01DX009 (ip), vehicle: saline + alcohol) 106 % of control; (endpoint: mean survival time, dose: 2.0 mg/kg/injection, schedule: Q01DX009 (ip), vehicle: saline + alcohol) 98 % of control; (endpoint: mean survival time, dose: 4.0 mg/kg/injection, schedule: Q01DX009 (ip), vehicle: saline + alcohol) 96 % of control.

`Cc1ccc(-n2c(N)cc(=O)[nH]c2=S)nc1`: the T/C under setting [4] was 95 % of control, the T/C under setting [5] was 100 % of control and the T/C under setting [6] was 95 % of control.

As to `CC(/C=C/C=C/c1ccccc1)=N\O`, the T/C was 101 % of control under setting [1], 110 % of control under setting [2] and 104 % of control under setting [3].

Take `CCCCCCCCCCCCCCCCCCNC(=O)C[N+](C)(C)Cc1ccccc1`: the T/C runs as follows: (endpoint: mean survival time, dose: 6.25 mg/kg/injection, schedule: Q04DX003 (ip), vehicle: saline with Tween-80) 103 % of control; (endpoint: mean survival time, dose: 12.5 mg/kg/injection, schedule: Q04DX003 (ip), vehicle: saline with Tween-80) 97 % of control.

In the case of `OCCNc1ccc(I)cc1`, the T/C is 105 % of control under setting [4], 112 % of control under setting [5] and 103 % of control under setting [6].

For the molecule `CCc1ccc(C(C)(C)C)cc1`, the T/C reads like this: under setting [4], 99 % of control; under setting [5], 105 % of control.
